Data: patent publication US20200255492A1, “LEPTIN PEPTIDES AND THEIR USE FOR TREATING NEUROLOGICAL DISORDERS” (UNIVERSITY OF DUNDEE, priority 2017, published 2020)

Key:
Akt = test: ELISA ratio of phospho-Akt to pan-Akt; format: cell-based, human; conditions: 1 nM; 3 h
Experimental: The human neuroblastoma cell line, SH-SY5Y (ECACC, UK) was maintained in Dulbecco's Modified Eagle Medium supplemented with glucose ([…]) and 10% (v/v) cosmic calf serum (Fisher Scientific, UK) at 37° C. in a humidified atmosphere of 5% CO2, 95% air and allowed to reach 70-80% confluence before seeding. Cells (passage 10-18) were plated at 10 000 cells per well in 96 well tissue culture plates (Nunc, VWR, UK) and at a density of 2×10^5 cells in 35 mm dishes for protein extraction. To induce differentiation, cells were cultured in DMEM supplemented with glucose ([…]), 1% (v/v) cosmic calf serum and 10 μM retinoic acid for 5 days. Thereafter they were incubated in DMEM supplemented with glucose ([…]), serum replacement 2 (2%; Sigma, UK) and 18 μM 5-fluorodeoxyuridine to inhibit proliferation of undifferentiated cells. The 50% of the medium was changed every 2-3 days and pharmacological treatment was carried out 7 days after switching to this medium. Reagents used were (from Sigma UK unless stated) 0.1-10 nM human leptin and leptin (116-130); 0.1-10 nM leptin (22-56; Bachem; Switzerland); 10 nM leptin (116-121) leptin (117-122), leptin (124-129) or leptin (125-130; all Severn Biotech, UK); 5 μM copper chloride; […], 5 μM WP1066 or 50 nM wortmannin. […]

mitochondria = test: MitoRed analysis of mitochondrial morphology after 6-OHDA (cellular Parkinson's Disease model); format: cell-based; conditions: 0.1 nM plus 100 μM 6-OHDA; 1 hour
Experimental: Cultures were established on 3 separate occasions in quadruplicate and stained with MitoRED to identify mitochondria after 1 hour of treatment. Statistical significance relative to untreated control is denoted with ** where P<0.01 and *** where P<0.001. Representative images of 100 μM 6-OHDA-treated MitoRED stained cultures (C) and 100 μM 6-OHDA and leptin116-130 co-treated MitoRED stained cultures are shown. Scale bar represents […].
The human neuroblastoma cell line, SH-SY5Y (ECACC, UK) was maintained in Dulbecco's Modified Eagle Medium supplemented with glucose ([…]) and 10% (v/v) cosmic calf serum (Fisher Scientific, UK) at 37° C. in a humidified atmosphere of 5% CO2, 95% air and allowed to reach 70-80% confluence before seeding. Cells (passage 10-18) were plated at 2×10^5 cells on 13 mm borosilicate class coverslips or at 10 000 cells per well in 96 well tissue culture plates (Nunc, VWR, UK) prior to treatment. Reagents used were (from Sigma UK unless stated) 1 nM human leptin, leptin (116-121), leptin (117-122) and leptin (117-125); 0.0001-1 nm murine leptin fragments leptin (116-121), leptin (117-122) and leptin (116-130); 100 μM 6-hydroxydopamine; 10 μM CuCl2; […] Aβ1-42.
Cells were treated with pre-warmed cell culture medium containing 1 μM MitoRed ((9-[2-(4′-Methylcoumarin-7′-oxycarbonyl)phenyl]-3,6-bis(diethylamino)xanthylium chloride) and returned to the incubator for 45 minutes. Following fixation in NBF for 15 minutes, cells were washed 3 times in PBS. Coverslips were mounted in fluorescence mountant onto microscope slides and imaged on the Zeiss Axio MR2 microscope. The mean mitochondrial area and index of fragmentation (number of mitochondria: total area of mitochondrial material) were calculated using Fiji.

SH-SY5Y neural cells = test: Serum/glucose deprivation (in vitro model of stroke), crystal violet assay; format: cell-based, human; conditions: 96 hours; range of concentrations
Experimental: Cultures were established on 7 separate occasions in quadruplicate and starved of serum and glucose when they reached 70% confluence. Neural cell viability in response to a range of concentrations of leptin116-130 was determined 96 hours later using a crystal violet assay to measure cell number. Statistical significance relative to serum/glucose deprivation is denoted with ** where P<0.01 and *** where P<0.001. Photomicrographs of serum/glucose deprived cultures and of serum/glucose deprived cultures treated with 0.1 nM leptin116-130 (B) further highlight the enhanced cell number in the presence of leptin116-130. Scale bar represents 25 μm. […]
The concentration of lactate dehydrogenase (LDH) in the culture medium or the mitochondrial activity within cells was used to monitor the level of cell death, as previously (Oldreive and Doherty 2010). […] Plates were washed 5-10 times in dH2O and cells solubilised in 100 μl dimethyl sulfoxide (DMSO) before reading the absorbance on a Biohit BP100 plate reader. For all assays, data is expressed as percentage relative to control, untreated wells to normalize for differences in plating density between individual experiments.

[1] = Samson et al. 1996; cited from earlier work

| Substance | ratio of phosphorylated Akt to pan Akt (Akt) | mitochondrial clumping (fragmentation index) with 6-OHDA (mitochondria) | mitochondrial swelling (mean mitochondrial area) with 6-OHDA (mitochondria) | survival following serum/glucose deprivation (SH-SY5Y neural cells) | food intake [1] |
| --- | --- | --- | --- | --- | --- |
| SCSLPQTSGLQKPES (listed as Mus musculus) [leptin (116-130)] | an increase in the ratio of phosphorylated Akt to pan Akt | prevents 6-OHDA-associated mitochondrial clumping | prevents 6-OHDA-associated mitochondrial swelling | significant neuroprotection | – |
| leptin (22-56): leptin fragment amino acids 22-56 (Bachem), comparison fragment (VPIQKVQDDTKTLIKTIVTRINDISHTQSVSSKQK; UniProt P41159 22-56, looked up, fragment) [reference compound] | – | – | – | – | significant reductions in food intake |
